How the values were obtained:
[1] = Protein binding (free ligand fraction in plasma); type: in vitro ADME; conditions: obtained amyloid probe
Procedure: (§1) The labeling of the compounds of the invention was carried out under standard conditions (Na^123/125I, oxidizer, acidic medium) at ambient temperature. Radiochemical yields averaged 35-90%. The labeled compounds were readily purified by reverse-phase HPLC, and their radiochemical purity exceeded 95%.

Lipophilicity (LogD) = type: physicochemical; conditions: pH 7.4; obtained amyloid probe
Procedure: as §1

free ligand fraction in plasma [1]: 4% | logD (Lipophilicity (LogD)): 2.7
SMILES: CN(C)c1ccc(-n2nc3ccc(I)cc3n2)cc1 [MNI-187]

Reference: patent US7700616B2, “Compounds and amyloid probes thereof for therapeutic and imaging uses” (Molecular Neuroimaging, LLC., priority 2006, dated 2010)
